The results in this text go back to PMC3664642, “A Peptide against Soluble Guanylyl Cyclase α1: A New Approach to Treating Prostate Cancer” (PLoS ONE, 2013).

One data set deals with PC-3 cells. The experiment in a line: Proliferation/cytotoxicity, sGCα1-deficient PC-3 cells (MTT). In kind it is cell-based. Conditions: different concentrations, Fig. 3E. The procedure:
(§1) LNCaP, C81, PC-3 and Cos cells were grown as previously described. CWR-22Rv1 cells were cultured in RMPI-1640 medium with 10% FBS and 50 µg/ml Gentamicin (Gibco). Control siRNA, sGCα1 siRNA and AKT siRNA (Dharmacon) at 50 nM final concentration was transfected into cells using Lipofectamine siMAX (Invitrogen).
(§2) For proliferation, cells were grown in medium containing 2% FBS extracted with dextran-coated charcoal (DCC). 48 hours later, ethanol or 1 nM R1881 was added to the cells followed by peptide treatment. The MTT assay (Sigma) was used as before to determine cell number. For apoptosis, 5000 cells were seeded in 96-well plates and treated with Vehicle (DMSO), Peptide A-8R (25 µM), Etoposide (50 µM) (Sigma) at different time points. The Caspase (3/7) activity was measured using Apo-ONE Homogeneous Caspase-3/7 assay kit (Promega). PARP cleavage was also used to measure apoptosis, and is described below.
(§3) Vehicle or different concentrations of Peptide A-8R or C-8R, as shown, was added to (A) hormone-dependent LNCaP cells grown in 2% serum without or with 1 nM R1881, (C) castration-resistant C81 or CWR-22Rv1 cells, or (E) sGCα1-deficient PC-3 or Cos cells. Cell number was measured after various days of incubation. Data points represent averages of three independent experiments plus standard deviations. […]

Data set [1] relates to Caspase 3/7 activity in Cos cells. The experiment in a line: Caspase 3/7 assay, Cos cells. In kind it is cell-based, African green monkey. Particulars: 10 µM; 0–24 hrs; Fig. 5C. The protocol: as §2
Figure 5 Peptide A-8R induces apoptosis of prostate cancer cells. (A) LNCaP, (B) PC-3, or (C) Cos cells were treated with Vehicle, Peptide A-8R (10 µM), or Etoposide (20 µM) for 0–24 hrs and subjected to a Caspase assay to measure apoptosis. Bar graphs represent averages of three independent experiments plus standard deviations. All activities are relative to the first condition, and this activity was set to 1. Asterisks indicate statistical significance (P<0.005). (D) LNCaP cells were treated with Vehicle, Peptide C-8R, Peptide A-8R, or Etoposide (each drug at 50 µM) for 8 hrs and monitored for apoptosis by measuring PARP cleavage using Western blotting. Note that β-actin was used to control for protein loading.

Data set [2] deals with C81 cells. The experiment in a line: DAPI DNA staining, C81 cells. It counts as cell-based. Particulars: 50 µM Peptide A-8R, 1 hr, with or without 5 mM NAC, Fig. S6. The protocol:
C81 cells were first treated with or without 5 mM NAC for 2 hrs and then Vehicle or different concentrations of Peptide A-8R, as shown, for 1 hr and stained with DAPI. Phase contrast images are shown. (TIF) Click here for additional data file.

In data set [3] the test system is PARP cleavage in LNCaP cells. As to the kind of experiment: PARP cleavage by Western blot, LNCaP cells. It counts as cell-based. Conditions: 50 µM each drug, 8 hrs, Fig. 5D. The procedure:
as §2
Western blotting was performed as described using primary antibodies against sGCα1 (Cayman Chemical), pan-Akt (Cell Signaling Technology), phospho-AKT (S473, T308) (Cell Signaling Technology), phospho-PDK1 (Cell Signaling Technology), phospho-GSK-3β (Cell Signaling Technology), PARP (Cell Signaling Technology), and β-Actin (Abcam).
Figure 5 Peptide A-8R induces apoptosis of prostate cancer cells. (A) LNCaP, (B) PC-3, or (C) Cos cells were treated with Vehicle, Peptide A-8R (10 µM), or Etoposide (20 µM) for 0–24 hrs and subjected to a Caspase assay to measure apoptosis. […] (D) LNCaP cells were treated with Vehicle, Peptide C-8R, Peptide A-8R, or Etoposide (each drug at 50 µM) for 8 hrs and monitored for apoptosis by measuring PARP cleavage using Western blotting. […]

In data set [4] the test system is C81 cells. As to the kind of experiment: Proliferation/cytotoxicity, castration-resistant C81 cells (MTT). It counts as cell-based. Particulars: different concentrations; Fig. 3C; averages of three independent experiments; P<0.03 vs Vehicle. The procedure: as §1, §2, §3
Data set [5] is described as follows: Behavior and weight of mice in the animal studies. It counts as in vivo, mouse. The procedure: 2×10^6 C81 cells in 50 µL of growth medium was mixed with 50 µL Matrigel (BD Biosciences) and injected into both flanks of 4–6-week old SCID male mice. When tumor sizes reached 200 mm^3, 50 µL of Peptide A-8R (40 mg Peptide A-8R/Kg of animal) or Vehicle (DMSO) was directly injected into the tumors every other day. Injections were stopped after 5 times and tumors were measured every 3 days. Mice were euthanized after 3 weeks and tumors were excised. All procedures were approved by the University of Toledo Division of Lab Animal Recourses (DLAR). Protein extracts were prepared by boiling the tumor tissue in 3× SDS buffer, and evaluated by SDS-PAGE gel.
This study was carried out in strict accordance with the recommendations in the Guide for the Care and Use of Laboratory Animals of the National Institutes of Health. The protocol was approved by the Institutional Animal Care and Use Committee of the University of Toledo (Protocol Number: 106418). During the experiments all animals were monitored daily for morbidity and all efforts were made to minimize suffering. At the end of the study all animals were euthanized using inhalation of carbon dioxide, after which surgery was performed to excise tumors from all animals.

For a further data set, the system named is sGC. As to the kind of experiment: cGMP levels in LNCaP cells (ELISA). It counts as cell-based. Particulars: 1 nM R1881 absent or present, 20 µM peptide, cGMP EIA kit, Fig. S1B. The procedure:
(A) Whole-cell extracts from LNCaP cells treated with Vehicle, Peptide A-8R, or C-8R were subjected to IP using an anti-sGCα1 or anti-sGCβ1 antibody and then probed by Western blotting for sGCα1 (Upper) or sGCβ1 (Lower). Input represents amount of sGCα1 or sGCβ1 found in extracts. (B) LNCaP cells grown in the absence or presence of 1 nM R1881 were treated with Vehicle, 20 µM Peptide A-8R, 20 µM C-8R, or 8-Br-cGMP and monitored for cGMP levels using the cGMP E1A kit (Enzo Life Sciences). (C) LNCaP cells grown in the absence or presence of 8-Br-cGMP were treated with Vehicle, Peptide A-8R, or ODQ and monitored for cell density using the MTT assay. (D) LNCaP cells were treated with Vehicle or different concentrations of Peptide A-8R and C-PTIO and monitored for cell density. Bar graphs represent averages of three independent experiments plus standard deviations. Asterisks indicate statistical significance (P<0.04). (TIF) Click here for additional data file.

Entries after “also recorded” stand apart in the source; their conditions may differ. Where no end group is shown, it is not given here.

Ac-TFCKAFPFHIIRRRRRRRR [Peptide A-8R]: the “effect on PC-3 cells” value in the data set on PC-3 cells is “little to no effect”. In addition, the “induction of apoptosis, Cos” value in data set [1] is on record as “failed to induce apoptosis”. The “DAPI staining / effect on nuclei and DNA” value with C81 cells [2] was “kills the cells and disrupts their nuclei and DNA such that DAPI staining yields no signal”. For the same substance, in data set [3], the “induction of PARP cleavage” value is reported as “to the same extent as by Etoposide”. In addition, the “suppression of growth of C81 cells” value in the data set on C81 cells [4] is “very effective at suppressing the growth of C81 cells (Fig. 3C), matching the effect on hormone-dependent LNCaP cells”. Moreover, the “effect on behavior or weight of mice” value in data set [5] is listed as “no effect on the behavior or weight of the mice”. In the data set with sGC, the cGMP levels result is “unable to significantly repress cGMP levels, in either the absence or presence of androgen; also recorded: does not interfere with sGCα1-sGCβ1 dimerization and androgen-induced cGMP synthesis”.
